This is an account of results in US20100119599A1 (ARCHER PHARMACEUTICALS, INC., priority 2006, published 2010).

Read-outs that look alike come from different tables or passages of the source.

The subject of one assay is Aβ1-42. The assay can be described thus: Measurement of Aβ1-42 in culture medium of 7W WT APP751 CHO cells by ELISA.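 As to Aβ1-42 (% of control): 5 µM test compound but RI-coded compounds at 10 µM for 24 hours.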 It is filed as cell-based, Chinese hamster. The settings on record: Cricetulus griseus, 5 μM test compound, CHO cells stably transfected with human APP751, culture medium, ELISA, control DMSO.
The test system of a further assay is Aβ1-40. The assay can be described thus: Measurement of Aβ1-40 in culture medium of 7W WT APP751 CHO cells by ELISA.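 Also: 5 µM test compound but RI-coded compounds at 10 µM for 24 hours.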 It counts as cell-based, Chinese hamster. The settings on record: Cricetulus griseus, 5 μM test compound, CHO cells stably transfected with human APP751, culture medium, ELISA, control DMSO.
[1] abbreviates: Table 1, 0 = no detectable amount, read-out: Aβ1-42 (% of control).
[2] abbreviates: Table 1, 0 = no detectable amount.

As for `CCOCCOC(=O)C1=C(C)NC2=C(C(=O)CC(c3ccccc3)C2)C1c1ccc(Br)cc1` (stereo not drawn) [ST017313, 2-ethoxyethyl 4-(4-bromophenyl)-2-methyl-5-oxo-7-phenyl-1,4,6,7,8-pentahydroquinoline-3-carboxylate], the activity at 5 µM in the assay with Aβ1-42 (setting [1]) came out at 85.4%; in the assay on Aβ1-40 (setting [2]), 44.2%.

As for `CC1=C(C(=O)OCCOc2ccccc2)C(c2cccc(O)c2)C2=C(CC(c3ccccc3)CC2=O)N1` (stereo not drawn) [ST017315, 2-phenoxyethyl 4-(3-hydroxyphenyl)-2-methyl-5-oxo-7-phenyl-1,4,6,7,8-pentahydroquinoline-3-carboxylate], the activity at 5 µM with Aβ1-42 (setting [1]) was 53.9%; in the assay with Aβ1-40 (setting [2]), 43.8%.

For the compound `CCC(C)OC(=O)C1=C(C)NC2=C(C(=O)CC(c3ccccc3)C2)C1c1ccc(Cl)c(Cl)c1` (stereo not drawn) [ST017319, methylpropyl 4-(3,4-dichlorophenyl)-2-methyl-5-oxo-7-phenyl-1,4,6,7,8-pentahydroquinoline-3-carboxylate], the activity at 5 µM in the assay on Aβ1-42 (setting [1]) is 97.5%; with Aβ1-40 (setting [2]) it was 26.8%.

`COc1cccc(C2C(C(=O)OC(C)C)=C(C)NC3=C2C(=O)CC(c2ccc(Cl)cc2)C3)c1OC` (stereo not drawn) [ST017324, methylethyl 4-(2,3-dimethoxyphenyl)-7-(4-chlorophenyl)-2-methyl-5-oxo-1,4,6,7,8-pentahydroquinoline-3-carboxylate]: the activity at 5 µM was 99.2% in the assay on Aβ1-42 (setting [1]) and 30.2% with Aβ1-40 (setting [2]).

For the compound `CC1=C(C(=O)OC(C)C)C(c2cccnc2)C2=C(CC(c3ccc(Cl)cc3)CC2=O)N1` (stereo not drawn) [ST017331, methylethyl 7-(4-chlorophenyl)-2-methyl-5-oxo-4-(3-pyridyl)-1,4,6,7,8-pentahydroquinoline-3-carboxylate], the figures for the activity at 5 µM with Aβ1-42 (setting [1]) and in the assay on Aβ1-40 (setting [2]) were 0% and 1.11%, respectively.

In the case of `CCCCCOC(=O)C1=C(C)NC2=C(C(=O)CCC2)C1c1cccc(O)c1` (stereo not drawn) [ST017336, pentyl 4-(3-hydroxyphenyl)-2-methyl-5-oxo-1,4,6,7,8-pentahydroquinoline-3-carboxylate], the activity at 5 µM with Aβ1-42 (setting [1]) stood at 72.7%; in the assay with Aβ1-40 (setting [2]), 62.9%.

As to `CC1=C(C(=O)OCC(C)C)C(c2ccc(OCc3ccccc3)cc2)C2=C(CCCC2=O)N1` (stereo not drawn) [ST017342, 2-methylpropyl 2-methyl-5-oxo-4-[4-(phenylmethoxy)phenyl]-1,4,6,7,8-pentahydroquinoline-3-carboxylate], the activity at 5 µM turned out to be 93.5% in the assay on Aβ1-42 (setting [1]) and 28.8% with Aβ1-40 (setting [2]).

Consider `COc1ccc(OC)c(C2C(C#N)=C(C)NC3=C2C(=O)CC(c2ccccc2)C3)c1` (stereo not drawn) [ST018638, 4-(2,5-dimethoxyphenyl)-2-methyl-5-oxo-7-phenyl-1,4,6,7,8-pentahydroquinoline-3-carbonitrile], for which the figures for the activity at 5 µM in the assay on Aβ1-42 (setting [1]) and with Aβ1-40 (setting [2]) were 53.8% and 45.4%, respectively.

Take `COc1ccc(COC(=O)C2=C(C)NC3=C(C(=O)CCC3)C2c2ccc(Br)cc2)cc1` (stereo not drawn) [ST018645, (4-methoxyphenyl)methyl 4-(4-bromophenyl)-2-methyl-5-oxo-1,4,6,7,8-pentahydroquinoline-3-carboxylate]: the results for the activity at 5 µM with Aβ1-42 (setting [1]) and with Aβ1-40 (setting [2]) were 18% and 7.03%, respectively.

With `COc1ccc(COC(=O)C2=C(C)NC3=C(C(=O)CCC3)C2c2ccc(Cl)cc2)cc1` (stereo not drawn) [ST018648, (4-methoxyphenyl)methyl 4-(4-chlorophenyl)-2-methyl-5-oxo-1,4,6,7,8-pentahydroquinoline-3-carboxylate], the results for the activity at 5 µM with Aβ1-42 (setting [1]) and in the assay with Aβ1-40 (setting [2]) were 11% and 7.49%, respectively.

Regarding `N#CC(C#N)=CC=C1C=CN(C2CCCCC2)C=C1` [ST019328], the activity at 5 µM was 92.2% with Aβ1-42 (Table 3, read-out: Aβ-42 (% of control)) and 59% in the assay with Aβ1-40 (Table 3).

Regarding `CCOC(=O)C1=C(C)NC2=C(C(=O)CC(C)(C)C2)C1c1ccc(Cl)cc1Cl` (stereo not drawn) [ST020008, ethyl 4-(2,4-dichlorophenyl)-2,7,7-trimethyl-5-oxo-1,4,6,7,8-pentahydroquinoline-3-carboxylate], the activity at 5 µM with Aβ1-42 (setting [1]) was 95.7%; in the assay with Aβ1-40 (setting [2]) it was 61.7%.
